The text below walks through data of patent US9394254B2, “Antibiotic and anti-parasitic agents that modulate class II fructose 1,6-bisphosphate aldolase” (priority 2013, dated 2016).

Test [1] concerns the target T1, MtFBA (Mycobacterium tuberculosis (strain ATCC 25618 / H37Rv), UniProt P9WQA3). It counts as binding. The conditions noted are these: 25° C.
A short description of test [2]: Calorimetric titration into MtFBA buffer with 200 μM ZnCl2 (no enzyme). The test is classed as binding. The conditions noted are these: 1 mM compound titrated into MtFBA buffer with 200 μM ZnCl2, 25° C. The protocol:
FIG. 5 provides data from the calorimetric titration of HCA. […] Top graphs represent raw heat data and bottom graphs are integrated heat peaks gained at 25° C.
Top graphs represent raw heat data and bottom graphs are integrated heat peaks gained at 25° C. from 25 injections of Regis 5 into 170 μL of 20 mM Tricine pH 8.0, 100 mM NaCl, and either (a) 700 μM MtFBA with 100 μM ZnCl2 or (b) 200 μM ZnCl2. Data sets were collected in duplicate, analyzed with NanoAnalyze™ software, and fit to an independent model concurrently with a bank constant model to adjust for a heat of dilution.

In test [3] the test system is class I FBA. The conditions noted are these: human muscle, concentrations as high as 1 mM.
Test [4] addresses class IIa FBA isolated from E. coli (Escherichia coli (strain K12), UniProt P0AB71). The experiment in a line: Inhibition of class IIa FBA from E. coli. The test is classed as biochemical. The conditions noted are these: 25 μM HCA. The protocol: Class II FBAs can be broken down into two families (a/b) whose distribution among bacterium is independent of Gram staining determined phylogenetic groups. In this illustration, a single concentration of HCA at 25 μM was tested for the inhibition of class IIa FBA isolated from E. coli and class IIb FBA originating from methicillin-resistant S. aureus (MRSA).
Error bars represent standard deviations from the average.

Test [5] concerns the target class I FBA (Oryctolagus cuniculus (Rabbit), UniProt P00883). The experiment in a line: Inhibition of class I FBA from rabbit muscle. It counts as biochemical. The conditions noted are these: concentrations as high as 1 mM.
For test [6], the target named is T1, MtFBA. Kind of test: MtFBA enzyme inhibition. The conditions noted are these: for % Inhibition at 1 mM: 1 mM compound. It counts as biochemical.

Chain of class I FBA (Oryctolagus cuniculus (Rabbit), UniProt P00883) (P00883 whole entry, looked up): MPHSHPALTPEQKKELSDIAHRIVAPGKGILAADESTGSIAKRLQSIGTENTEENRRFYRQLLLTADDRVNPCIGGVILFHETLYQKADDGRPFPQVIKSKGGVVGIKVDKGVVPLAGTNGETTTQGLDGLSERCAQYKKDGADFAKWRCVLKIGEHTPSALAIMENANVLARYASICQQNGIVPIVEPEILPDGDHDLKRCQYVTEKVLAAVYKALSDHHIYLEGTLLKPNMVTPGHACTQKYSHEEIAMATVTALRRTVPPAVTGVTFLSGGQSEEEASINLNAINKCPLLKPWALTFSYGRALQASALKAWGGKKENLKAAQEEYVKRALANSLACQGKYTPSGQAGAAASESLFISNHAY
Chain of class IIa FBA isolated from E. coli (P0AB71 whole entry, looked up): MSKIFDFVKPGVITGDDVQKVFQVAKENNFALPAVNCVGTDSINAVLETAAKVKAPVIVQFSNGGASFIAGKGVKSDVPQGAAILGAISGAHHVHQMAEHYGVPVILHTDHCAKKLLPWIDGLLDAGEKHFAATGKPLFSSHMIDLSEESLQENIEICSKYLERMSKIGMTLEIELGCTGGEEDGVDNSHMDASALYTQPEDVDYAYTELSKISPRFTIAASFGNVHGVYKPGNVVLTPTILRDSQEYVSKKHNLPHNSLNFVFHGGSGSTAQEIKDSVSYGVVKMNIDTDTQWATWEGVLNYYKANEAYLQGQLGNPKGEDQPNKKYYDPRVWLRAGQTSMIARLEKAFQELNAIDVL

On to `O=C(O)c1ccc2cccc(O)c2n1` [Compound 5], for which the “n (ITC stoichiometry)” value at MtFBA [1] was determined as 0.94±0.14. The compound also returned a ΔH on MtFBA [1] (ITC) of -6.867 ± 0.139 kcal/mol. This compound came in with a ΔS on MtFBA [1] (ITC) of 2.44±3.12 J mol^−1 K^−1. In addition, on MtFBA [1] (ITC, 5 mM compound into 700 μM MtFBA, 20 mM Tricine pH 8.0, 100 mM NaCl, 100 μM ZnCl2, read-out: dissociation constant Kd), the Kd was 6.94 ± 0.97 µM. Also, the “binding to buffer Zn(II)” value in test [2] is recorded as “no appreciable binding”. The “inhibition of class I FBA” value in the test on class I FBA [3] and against class I FBA [5] was “no inhibitory affects” throughout. Further, in test [4], the “% inhibition” value was 42.2±2.8%. Also, the IC50 at MtFBA [6] (FIG. 6A inset, serial dilutions of compound) turned out to be 17 ± 2.1 µM; against MtFBA [6] (SAR table), 14 ± 2 µM. Further, at MtFBA [6] (read-out: % Inhibition at 1 mM), the inhibition at 1000 µM was found to be 95 ± 4.1%.

Take `O=C(O)c1ccc2cc(F)cc(O)c2n1` [Compound 6F-HCA, 6-fluoro-8-hydroxyquinoline-2-carboxylic acid]: the “increase in potency toward the enzyme relative to HCA” value on MtFBA [6] (fluorine at position 6 versus HCA) worked out at 50%.

Take `Oc1cccc2cccnc12` [Compound 6]: the “% Inhibition at 1 mM” value at MtFBA [6] worked out at 54 ± 18%. This compound showed an IC50 at MtFBA [6] (SAR table) of 300 ± 67 µM.

For the compound `Nc1cccc2cccnc12` [Compound 18], the “% Inhibition at 1 mM” value on MtFBA [6] is 68 ± 2.2%. For the same compound, half-maximal inhibition at MtFBA [6] (SAR table) (IC50) required 79 ± 10 µM.

Consider `CS(=O)(=O)Nc1ccc2cccc(O)c2n1` [Compound 34], for which, on MtFBA [6], the “% Inhibition at 1 mM” value is listed as 12 ± 5.4%. Half-maximal inhibition at MtFBA [6] (SAR table) (IC50) required 570 ± 87 µM.
